We go through two compounds from PMC3669315, “Dissociations in the Effects of β2-Adrenergic Receptor Agonists on cAMP Formation and Superoxide Production in Human Neutrophils: Support for the Concept of Functional Selectivity” (PLoS ONE, 2013).

The structures appear in SMILES notation. Like-named read-outs stand apart in the source and are kept apart here.

Assay [1] concerns the target T1, β2-adrenergic receptor (β2AR) on human neutrophils (Homo sapiens, UniProt P07550).
T1 construct: gene ADRB2; native full-length receptor in intact neutrophils isolated from venous blood or buffy coat of healthy volunteers
Kind of assay: inhibition of fMLP-stimulated superoxide production, ferricytochrome c reduction. Type of assay: cell-based. Particulars: agonist potency, downstream functional read-out, intact neutrophils, […] fMLP, cytochalasin B, read-out: O2 ^•- assay (β2AR on neutrophil granulocytes) / pIC50 ± S.E.M. (IC50 in μM) (converted). The source says:
inhibition of fMLP-stimulated superoxide production, ferricytochrome c reduction on β2-adrenergic receptor (β2AR) on human neutrophils

The target in assay [2] is T1, β2-adrenergic receptor (β2AR) on human neutrophils. Kind of assay: cAMP accumulation, HPLC-MS/MS. The note with it: read-out: cAMP assay (β2AR on neutrophil granulocytes) / pEC50 ± S.E.M. (EC50 in μM) (converted), intact neutrophils, […] IBMX, […] °C. The format is cell-based. For orientation: Changes in cAMP serve as a functional read-out for many G protein-coupled receptors.

T1 sequence (P07550 whole entry): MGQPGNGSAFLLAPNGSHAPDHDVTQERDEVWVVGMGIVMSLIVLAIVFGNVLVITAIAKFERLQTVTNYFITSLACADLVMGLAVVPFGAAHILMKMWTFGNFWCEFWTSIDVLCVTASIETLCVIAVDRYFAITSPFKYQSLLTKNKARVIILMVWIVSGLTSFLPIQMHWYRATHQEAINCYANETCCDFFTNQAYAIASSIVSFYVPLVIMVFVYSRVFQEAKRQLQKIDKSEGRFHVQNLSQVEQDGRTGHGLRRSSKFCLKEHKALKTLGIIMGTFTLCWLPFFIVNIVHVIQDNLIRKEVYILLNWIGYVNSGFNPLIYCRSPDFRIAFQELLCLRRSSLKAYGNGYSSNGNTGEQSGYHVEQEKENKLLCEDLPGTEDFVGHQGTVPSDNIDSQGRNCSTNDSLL

On to `CC(C)NCC(O)c1ccc(Cl)c(Cl)c1` (racemic) [DCI, (±)-dichlorisoproterenol], for which the IC50 in assay [1] was 39.8 µM. Moreover, in assay [2] (agonist mode, table prints pEC50 <[…] as ( […]), text: no agonistic activity up to […]), the EC50 was more than 100 µM.

As for `CC(CCc1ccc(O)cc1)NCCc1ccc(O)c(O)c1` (racemic) [DOB, (±)-dobutamine], the EC50 in assay [2] (partial agonist) was 13.8 µM.
